Test results as given in ChEMBL document CHEMBL1130201, “Antimalarial activity of molecules interfering with Plasmodium falciparum phospholipid metabolism. Structure-activity relationship analysis” (J Med Chem, 1997).

Tested on: Plasmodium falciparum
Assay: Inhibitory activity against Plasmodium falciparum
Type: functional, organism-based
Details: not given

Compound | IC50
CETRIMIDE | 0.9 µM

Same assay, conditions: Plasmodium falciparum

Compound | IC50
C[N+](C)(C)CCCCCCCCCCCC[N+](C)(C)C | 0.09 µM
C[N+]1(CCCCC[N+]2(C)CCCC2)CCCC1 | 650 µM
C[N+](C)(C)CC(=O)O [BETAINE] | > 8000 µM
CCCCCCCCCCCC[N+](C)(C)CCCC | 0.26 µM
C[N+](C)(C)CCCl [CHLORMEQUAT CHLORIDE] | 200 µM
CCN(CC)CCO [DIETHYLAMINOETHANOL] | 400 µM
CC(C)(C)CCO | > 2000 µM
CN(C)CCCCCCN(C)C | 130 µM
CCCCCCCCCCCC[N+](C)(C)C | 0.5 µM
CCCCCCCCCCCCCC[N+](C)(C)CCO | 0.6 µM
CCCCCCCCCCCCCCCCCC[N+](CC)(CC)CCO | 0.62 µM
CC(O)CN (stereo unspecified) | 800 µM
C[Se+](C)CCO | 420 µM
OCCN1CC1 | 50 µM
OCCN1CCN(CCO)CC1 | 1200 µM
C[N+](C)(CCO)Cc1ccccc1 | 112 µM
CCCCCCCCCCCC[N+](CC)(CC)CCO | 0.34 µM
CCCCCCCCCC[N+](C)(C)C | 0.7 µM

Compound | IC50
CCCCCCCCCCCCNCCOC | 2.1 µM
C[C@H]1O[C@@H](C[N+](C)(C)C)C[C@@H]1O | > 200 µM
CC[N+](CC)(CCO)CCCCCCCCCC[N+](CC)(CC)CCO | 2 µM
CCCCCCCCCCCCCCCCCC[N+](C)(C)CCO | 1.3 µM
NCCCCCN | 2000 µM
CCCCCCCCCC[N+](C)(C)CCO | 0.97 µM
NC(CO)CO | 50 µM
CC(=O)OCC[N+](C)(C)C [ACETYLCHOLINE CHLORIDE] | > 8000 µM
C[N+](C)(C)CCCCCC[N+](C)(C)C [HEXAMETHONIUM BROMIDE] | 700 µM
C[N+]1(CCO)CCCC1 | 230 µM
C[N+](C)(C)CCCCCCCCCC[N+](C)(C)C [DECAMETHONIUM BROMIDE] | 1.7 µM
CN(C)CCO [DIMETHYLAMINOETHANOL] | 1300 µM
CC[N+](CC)(CC)CC [TETRYLAMMONIUM BROMIDE] | 700 µM
CCCCCCCCCCCC[N+](C)(C)CCBr | 0.21 µM
CCCCCCCCCCCCCCCCCC[N+](C)(C)C [TRIMETHYL-OCTADECYL-AMMONIUM CHLORIDE] | 2.1 µM
C[N+](C)(C)CCOP(=O)([O-])O | 1200 µM
CCCCCCCCCCC[N+](C)(C)C | 0.5 µM

The next lines start with the values.

IC50 | Compound
0.48 µM | CCCCCCCCCCCC[N+](C)(C)CCO
1260 µM | CC[N+](CC)(CCO)CCCCC[N+](CC)(CC)CCO
1.6 µM | CCCCCCCCC[N+](C)(C)C
4 µM | C[N+](C)(CCO)CC(=O)c1ccc(-c2ccc(C(=O)C[N+](C)(C)CCO)cc2)cc1
81.3 µM | CCCCC[N+](C)(C)CCO
900 µM | CC(C)(N)CO [DEANOL]
0.033 µM | CCCCCCCCCCCC[N+](CCC)(CCC)CCC
0.11 µM | CCCCCCCCCCCC[N+](C)(C)CC
4830 µM | C[N+]1(CCO)CCOCC1
0.064 µM | CCCCCCCCCCCC[N+](CC)(CC)CC
80 µM | CCC(N)CO (stereo unspecified)
0.15 µM | C[N+]1(CCCCCCCCCC[N+]2(C)CCCC2)CCCC1
1 µM | CCCCCCCCCCCCCC[N+](C)(C)Cc1ccccc1 [MIRISTALKONIUM CHLORIDE]
1.5 µM | CCCCCCCCCCCC[N+](CC)(CCO)CCCCCCCCCCCC
0.84 µM | CCCCCCCCCCCC[N+](C)(CCO)CCCCCCCCCCCC
0.55 µM | CCCCCCCCCCCCCC[N+](CC)(CC)CCO
> 1000 µM | OC1CCNC1 (stereo unspecified)
500 µM | CN(C)CCOC(=O)COc1ccc(Cl)cc1 [MECLOFENOXATE]
1.3 µM | CCCCCCCCCCCCN(C)CCO
0.61 µM | CCCCCCCCCCCCNC(CC)CO (stereo unspecified)

IC50 | Compound
600 µM | CCC(N)(CO)CO
0.7 µM | CCCCCCCCCCCCCCCCCC[N+](C)(C)Cc1ccccc1
1100 µM | OCCNCCO [DIETHANOLAMINE]
> 300 µM | CC[N+](C)(C)CCO
0.51 µM | CCCCCCCCCCCCNCCO
110 µM | C[N+](C)(CCO)CCc1ccccc1
250 µM | CC(Cc1ccccc1)[N+](C)(C)CCO (stereo unspecified)
200 µM | NCCS [CYSTEAMINE]
700 µM | C[N+](C)(C)C1CCCCC1O (stereo unspecified)
300 µM | CC(N)CO (stereo unspecified)
350 µM | OCCN1CCCCC1
> 1000 µM | OC1CCCNC1 (stereo unspecified)
420 µM | OCCN1CCCC1
> 2000 µM | NCCCCCO
40 µM | OCCNCc1ccccc1
800 µM | NCCCO
0.7 µM | CCCCCCCCCCCC[N+](C)(C)CCCCCCCCCCCC
120 µM | C[N+](C)(CCO)C1CCCCC1
0.15 µM | CCCCCCCCCCCC[N+](C)(C)CCC
300 µM | CCCCCCC[N+](C)(C)C
